Measured values reported in ChEMBL document CHEMBL4842380, “Enhanced Properties of a Benzimidazole Benzylpyrazole Lysine Demethylase Inhibitor: Mechanism-of-Action, Binding Site Analysis, and Activity in Cellular Models of Prostate Cancer” (J Med Chem, 2021).
Active and inactive are the calls of the source. The calls are words filed in the database; no cut-off is given here.

Experiments:
LNCaP [1] = assay: Cytotoxicity against human LnCaP cells assessed as growth inhibition after 48 hrs by alamar blue assay; type: functional
[2] = Cytotoxicity against human LnCaP cells assessed as remaining cell viability after 48 hrs by alamar blue assay; type: functional, Prostate cell
LNCaP [3] = assay: Inhibition of KDM4 in human LNCaP cells assessed as decrease in luciferase activity at 50 uM incubated for 48 hrs by luciferase based reporter gene assay; type: cell-based
LNCaP [4] = assay: Inhibition of KDM4 in human LNCaP cells assessed as decrease in PSA gene expression at 100 uM incubated for 48 hrs by qPCR analysis; type: cell-based
LNCaP [5] = assay: Inhibition of KDM4 in human LNCaP cells assessed as increase in H3K9me3 level at 25 uM incubated for 48 hrs by Nu-ELISA; type: cell-based
DU-145 [6] = assay: Inhibition of KDM4 in human DU-145 cells assessed as increase in H3K9me3 level at 25 uM incubated for 48 hrs by Nu-ELISA; type: cell-based
[7] = target: T1, Lysine-specific demethylase 4E (Homo sapiens, UniProt B2RXH2); assay: Inhibition of N-terminal His6-tagged KDM4E (1 to 337 residues) (unknown origin) expressed in Escherichia coli BL21 (DE3)-R3 preincubated for 10 mins followed by substrate addition by fluorescence based FDH-coupled assay
T1 sequence (B2RXH2 whole entry): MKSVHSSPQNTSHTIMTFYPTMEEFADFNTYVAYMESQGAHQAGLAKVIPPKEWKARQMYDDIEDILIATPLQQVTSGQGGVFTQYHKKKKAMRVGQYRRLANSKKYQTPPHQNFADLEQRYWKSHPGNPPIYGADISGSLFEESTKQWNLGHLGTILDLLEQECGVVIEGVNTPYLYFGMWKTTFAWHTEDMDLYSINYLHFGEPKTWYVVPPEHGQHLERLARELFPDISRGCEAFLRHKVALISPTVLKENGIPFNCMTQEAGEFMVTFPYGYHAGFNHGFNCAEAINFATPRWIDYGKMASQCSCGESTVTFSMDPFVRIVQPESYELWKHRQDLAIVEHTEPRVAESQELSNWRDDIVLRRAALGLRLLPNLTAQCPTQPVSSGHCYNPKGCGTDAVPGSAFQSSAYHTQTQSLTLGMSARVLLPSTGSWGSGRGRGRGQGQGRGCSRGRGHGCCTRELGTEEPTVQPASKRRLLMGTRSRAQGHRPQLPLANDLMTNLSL

DU-145 [8] = assay: Cytotoxicity against human DU-145 cells assessed as growth inhibition after 48 hrs by alamar blue assay; type: functional
PC-3 [9] = assay: Cytotoxicity against human PC-3 cells assessed as growth inhibition after 48 hrs by alamar blue assay; type: functional
DU-145 [10] = assay: Cytotoxicity against human DU-145 cells assessed as remaining cell viability after 48 hrs by alamar blue assay; type: functional
PC-3 [11] = assay: Cytotoxicity against human PC-3 cells assessed as remaining cell viability after 48 hrs by alamar blue assay; type: functional
[12] = Cytotoxicity against human prostate epithelial cells assessed as remaining cell viability after 48 hrs by alamar blue assay; type: functional
LNCaP [13] = assay: Inhibition of KDM4 in human LNCaP cells assessed as decrease in luciferase activity at 25 uM incubated for 48 hrs by luciferase based reporter gene assay; type: cell-based
LNCaP [14] = assay: Inhibition of KDM4 in human LNCaP cells assessed as decrease in PSA gene expression at 25 uM incubated for 48 hrs by qPCR analysis; type: cell-based
LNCaP [15] = assay: Inhibition of KDM4 in human LNCaP cells assessed as decrease in PSA gene expression at 25 uM incubated for 48 hrs in presence of DHT by qPCR analysis; type: cell-based
LNCaP [16] = assay: Inhibition of KDM4 in human LNCaP cells assessed as increase in H3K9me3 abundance at 25 uM incubated for 48 hrs by Western blot analysis; type: cell-based
[17] = target: T2, Lysine-specific demethylase 4E (Homo sapiens) (UniProt B2RXH2); assay: Inhibition of N-terminal His6-tagged KDM4E (1 to 337 residues) (unknown origin) expressed in Escherichia coli BL21 (DE3)-R3 at highest concentration preincubated for 10 mins followed by substrate addition by fluorescence based FDH-coupled assay
T2 sequence (whole entry): T1 sequence (B2RXH2 whole entry)

[18] = target: T1, Lysine-specific demethylase 4E; assay: Inhibition of N-terminal His6-tagged KDM4E (1 to 337 residues) (unknown origin) expressed in Escherichia coli BL21 (DE3)-R3 preincubated for 10 mins followed by alpha-KG addition after CTH addition for 2 hrs by ELISA
[19] = Cytotoxicity against human prostate epithelial cells assessed as growth inhibition after 48 hrs by alamar blue assay; type: cell-based, Prostate cell
[20] = compound: O=C(O)c1ccnc(C(=O)O)c1; assay: Inhibition of N-terminal His6-tagged KDM4E (1 to 337 residues) (unknown origin) expressed in Escherichia coli BL21 (DE3)-R3 assessed as Km at 1 uM in presence of alpha-KG by Michaelis-Menten analysis (reference value: 22 uM); conditions: Homo sapiens
[21] = compound: Cc1nn(-c2nc3ccccc3[nH]2)c(O)c1-c1ccccc1; assay: Inhibition of N-terminal His6-tagged KDM4E (1 to 337 residues) (unknown origin) expressed in Escherichia coli BL21 (DE3)-R3 assessed as Km at 1 uM in presence of alpha-KG by Michaelis-Menten analysis (reference value: 12 uM); conditions: Homo sapiens
[22] = compound: Cc1nn(-c2nc3ccccc3[nH]2)c(O)c1-c1ccccc1; assay: Inhibition of N-terminal His6-tagged KDM4E (1 to 337 residues) (unknown origin) expressed in Escherichia coli BL21 (DE3)-R3 assessed as Km at 5 uM in presence of alpha-KG by Michaelis-Menten analysis (reference value: 12 uM); conditions: Homo sapiens
[23] = compound: Cc1nn(-c2nc3ccccc3[nH]2)c(O)c1-c1ccccc1; assay: Inhibition of N-terminal His6-tagged KDM4E (1 to 337 residues) (unknown origin) expressed in Escherichia coli BL21 (DE3)-R3 assessed as Km at 10 uM in presence of alpha-KG by Michaelis-Menten analysis (reference value: 12 uM); conditions: Homo sapiens
[24] = compound: O=C(O)c1ccnc(C(=O)O)c1; assay: Inhibition of N-terminal His6-tagged KDM4E (1 to 337 residues) (unknown origin) expressed in Escherichia coli BL21 (DE3)-R3 assessed as Vmax at 1 uM in presence of alpha-KG by Michaelis-Menten analysis (reference value: 42 /s); conditions: Homo sapiens
[25] = compound: Cc1nn(-c2nc3ccccc3[nH]2)c(O)c1-c1ccccc1; assay: Inhibition of N-terminal His6-tagged KDM4E (1 to 337 residues) (unknown origin) expressed in Escherichia coli BL21 (DE3)-R3 assessed as Vmax at 1 uM in presence of alpha-KG by Michaelis-Menten analysis (reference value: 35 /s); conditions: Homo sapiens
[26] = compound: Cc1nn(-c2nc3ccccc3[nH]2)c(O)c1-c1ccccc1; assay: Inhibition of N-terminal His6-tagged KDM4E (1 to 337 residues) (unknown origin) expressed in Escherichia coli BL21 (DE3)-R3 assessed as Vmax at 5 uM in presence of alpha-KG by Michaelis-Menten analysis (reference value: 35 /s); conditions: Homo sapiens
[27] = compound: Cc1nn(-c2nc3ccccc3[nH]2)c(O)c1-c1ccccc1; assay: Inhibition of N-terminal His6-tagged KDM4E (1 to 337 residues) (unknown origin) expressed in Escherichia coli BL21 (DE3)-R3 assessed as Vmax at 10 uM in presence of alpha-KG by Michaelis-Menten analysis (reference value: 35 /s); conditions: Homo sapiens
[28] = compound: Cc1nn(-c2nc3ccccc3[nH]2)c(O)c1-c1ccccc1; assay: Inhibition of N-terminal His6-tagged KDM4E (1 to 337 residues) (unknown origin) expressed in Escherichia coli BL21 (DE3)-R3 assessed as Km at 1 uM in presence of H3K9me3 by Michaelis-Menten analysis (reference value: 11 uM); conditions: Homo sapiens
[29] = compound: Cc1nn(-c2nc3ccccc3[nH]2)c(O)c1-c1ccccc1; assay: Inhibition of N-terminal His6-tagged KDM4E (1 to 337 residues) (unknown origin) expressed in Escherichia coli BL21 (DE3)-R3 assessed as Km at 5 uM in presence of H3K9me3 by Michaelis-Menten analysis (reference value: 11 uM); conditions: Homo sapiens
[30] = compound: Cc1nn(-c2nc3ccccc3[nH]2)c(O)c1-c1ccccc1; assay: Inhibition of N-terminal His6-tagged KDM4E (1 to 337 residues) (unknown origin) expressed in Escherichia coli BL21 (DE3)-R3 assessed as Km at 10 uM in presence of H3K9me3 by Michaelis-Menten analysis (reference value: 11 uM); conditions: Homo sapiens
[31] = compound: Cc1nn(-c2nc3ccccc3[nH]2)c(O)c1-c1ccccc1; assay: Inhibition of N-terminal His6-tagged KDM4E (1 to 337 residues) (unknown origin) expressed in Escherichia coli BL21 (DE3)-R3 assessed as Vmax at 1 uM in presence of H3K9me3 by Michaelis-Menten analysis (reference value: 21 /s); conditions: Homo sapiens
[32] = compound: Cc1nn(-c2nc3ccccc3[nH]2)c(O)c1-c1ccccc1; assay: Inhibition of N-terminal His6-tagged KDM4E (1 to 337 residues) (unknown origin) expressed in Escherichia coli BL21 (DE3)-R3 assessed as Vmax at 5 uM in presence of H3K9me3 by Michaelis-Menten analysis (reference value: 21 /s); conditions: Homo sapiens
[33] = compound: Cc1nn(-c2nc3ccccc3[nH]2)c(O)c1-c1ccccc1; assay: Inhibition of N-terminal His6-tagged KDM4E (1 to 337 residues) (unknown origin) expressed in Escherichia coli BL21 (DE3)-R3 assessed as Vmax at 10 uM in presence of H3K9me3 by Michaelis-Menten analysis (reference value: 21 /s); conditions: Homo sapiens

Molecule: CN(C)CCCNC(=O)c1ccc(-c2cc(O)c3ncccc3c2)cc1
- GI50 (LNCaP [1]): 53 µM
- Activity [2]: 1%
- inhibition (LNCaP [3]): Active
- inhibition (LNCaP [4]): inactive
- inhibition (LNCaP [5]): Active
- inhibition (DU-145 [6]): Active

Molecule: CCc1nn(-c2nc3ccccc3[nH]2)c(O)c1-c1ccccc1
- IC50 [7]: 5 µM

Molecule: Cc1nn(-c2nc3ccccc3n2C)c(O)c1-c1ccccc1
- IC50 [7]: 34 µM

Molecule: Cc1nn(-c2nc3ccccc3[nH]2)c(O)c1-c1ccccc1
- GI50 (LNCaP [1]): 8 µM
- GI50 (DU-145 [8]): 8 µM
- GI50 (PC-3 [9]): > 50 µM
- Activity [2]: 1%
- Activity (DU-145 [10]): 0%
- Activity (PC-3 [11]): 27%
- Activity [12]: 2%
- inhibition (LNCaP [13]): Active
- inhibition (LNCaP [14]): Active
- inhibition (LNCaP [15]): Active
- inhibition (LNCaP [16]): Active
- inhibition (LNCaP [5]): Active
- inhibition (DU-145 [6]): Active

Molecule: Cc1cc(O)n(-c2nc3ccccc3[nH]2)n1
- IC50 [7]: 76 µM

Molecule: CCCc1c(C)nn(-c2nc3ccccc3[nH]2)c1O
- IC50 [7]: 24 µM

Molecule: Cc1cc(N)n(-c2nc3ccccc3[nH]2)n1
- IC50 [7]: 199 µM

Molecule: Cc1nn(-c2nc3ccccc3[nH]2)c(O)c1CCC(=O)N(C)C
- IC50 [7]: 16 µM

Molecule: Brc1cnn(-c2nc3ccccc3[nH]2)c1
- inhibition [17]: inactive

Molecule: Cc1ccc(-c2c(C)nn(-c3nc4ccccc4[nH]3)c2O)cc1
- IC50 [7]: 27 µM

Molecule: C=CCc1c(C)nn(-c2nc3ccccc3[nH]2)c1O
- IC50 [7]: 24 µM

Molecule: COC(=O)CCc1c(C)nn(-c2nc3ccccc3[nH]2)c1O
- IC50 [7]: 72 µM

Molecule: COC(=O)CCc1nn(-c2nc3ccccc3[nH]2)c(O)c1C
- IC50 [7]: 106 µM

Molecule: Cc1nn(-c2nc3ccccc3[nH]2)c(O)c1CCC(=O)O
- IC50 [7]: 274 µM

Molecule: CNC(=O)CCc1c(C)nn(-c2nc3ccccc3[nH]2)c1O
- IC50 [7]: 41 µM

Molecule: Cc1nn(-c2nc3ccccc3[nH]2)c(O)c1Cc1ccccc1
- IC50 [7]: 27 µM

Molecule: Cc1nn(-c2ccccn2)c(O)c1Cc1ccccc1
- IC50 [7]: 57 µM

Molecule: Cc1nn(-c2nc3ccccc3[nH]2)c(O)c1CCCN(C)C
- IC50 [7]: 70 µM

Molecule: C=CCc1c(C)nn(-c2ccccn2)c1O
- IC50 [7]: 191 µM

Molecule: Cc1nn(-c2ccc(Cl)nn2)c(O)c1-c1ccccc1
- IC50 [7]: 68 µM

Molecule: Cc1nn(-c2nc3ccccc3[nH]2)c(N)c1-c1ccccc1
- IC50 [7]: 160 µM

Molecule: Cc1nn(-c2nc3ccc(C(=O)O)cc3[nH]2)c(O)c1-c1ccccc1
- IC50 [7]: 19 µM

Molecule: COC(=O)Cc1cc(O)n(-c2nc3ccccc3[nH]2)n1
- IC50 [7]: 15 µM
- IC50 [18]: 581 µM
- GI50 (LNCaP [1]): 410 µM
- GI50 (DU-145 [8]): > 1000 µM
- GI50 (PC-3 [9]): > 1000 µM
- GI50 at 48 h [19]: > 500 µM
- Activity [2]: 15%
- Activity (DU-145 [10]): 69%
- Activity (PC-3 [11]): 79%
- Activity [12]: 12%

Molecule: CCCCc1nn(-c2nc3ccccc3[nH]2)c(O)c1-c1ccccc1
- IC50 [7]: 6 µM

Molecule: Cc1nn(-c2nc3ccccc3s2)c(O)c1-c1ccccc1
- IC50 [7]: 35 µM

Molecule: Cc1cc(C)n(-c2nc3ccccc3[nH]2)n1
- inhibition [17]: inactive

Molecule: C#CCc1c(C)nn(-c2nc3ccccc3[nH]2)c1O
- IC50 [7]: 5 µM

Molecule: O=C(O)Cc1cc(O)n(-c2nc3ccccc3[nH]2)n1
- IC50 [7]: 347 µM

Molecule: Cc1c(CCC(=O)O)nn(-c2nc3ccccc3[nH]2)c1O
- IC50 [7]: 437 µM

Molecule: CNCCCc1c(C)nn(-c2nc3ccccc3[nH]2)c1O
- IC50 [7]: 9 µM

B1: Lysine-specific demethylase 4E (Homo sapiens), B2RXH2 (protein)
chain: T1 sequence (B2RXH2 whole entry)
- Km [20]: 69 µM
- Km [21]: 13 µM
- Km [22]: 8 µM
- Km [23]: 2 µM
- Vmax [24]: 37 s⁻¹
- Vmax [25]: 31 s⁻¹
- Vmax [26]: 24 s⁻¹
- Vmax [27]: 12 s⁻¹
- Km [28]: 14 µM
- Km [29]: 14 µM
- Km [30]: 19 µM
- Vmax [31]: 21 s⁻¹
- Vmax [32]: 14 s⁻¹
- Vmax [33]: 5 s⁻¹
